According to article PMC8117066 (Behavioural brain research, 2021):
Residue numbers refer to the chain shown, from its start. Names may count otherwise.

Legend:
[1] = biological target: Dopamine transporter (DAT) (Mus musculus, UniProt Q61327); assay: inhibition of [3H]DA uptake in mouse striatal synaptosomes; format: biochemical
[2] = biological target: Dopamine transporter (DAT) (Mus musculus, UniProt Q61327, T53A); assay: as above; format: biochemical
[3] = substrate: NCCc1ccc(O)c(O)c1; assay: [3H]DA uptake kinetics; format: biochemical, Mus musculus

Sequence of Dopamine transporter (DAT) (Mus musculus, UniProt Q61327, T53A) (Q61327 whole entry T53A): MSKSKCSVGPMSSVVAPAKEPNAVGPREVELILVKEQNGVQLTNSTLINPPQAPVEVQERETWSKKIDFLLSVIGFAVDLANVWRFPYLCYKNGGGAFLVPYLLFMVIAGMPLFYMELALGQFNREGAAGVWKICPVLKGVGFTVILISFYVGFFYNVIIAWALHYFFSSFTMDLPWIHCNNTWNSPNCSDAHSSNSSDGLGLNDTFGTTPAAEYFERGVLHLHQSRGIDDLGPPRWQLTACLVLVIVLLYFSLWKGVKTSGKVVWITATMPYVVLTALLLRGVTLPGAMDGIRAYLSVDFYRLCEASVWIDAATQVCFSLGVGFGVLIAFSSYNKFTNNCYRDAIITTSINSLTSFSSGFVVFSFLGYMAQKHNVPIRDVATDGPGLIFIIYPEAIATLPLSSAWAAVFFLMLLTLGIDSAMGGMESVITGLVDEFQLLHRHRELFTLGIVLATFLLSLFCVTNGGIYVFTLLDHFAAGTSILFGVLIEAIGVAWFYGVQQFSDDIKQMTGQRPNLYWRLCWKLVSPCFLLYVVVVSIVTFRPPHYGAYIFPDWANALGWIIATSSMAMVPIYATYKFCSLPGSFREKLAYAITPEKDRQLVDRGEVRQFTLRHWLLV

CN[C@@H](C)Cc1ccccc1 [METH]
IC50 [1]: 280 ± 40 nM
IC50 [2]: 262 ± 25 nM

CC(N)Cc1ccccc1 (centres unmarked) [amphetamine]
IC50 [1]: 183 ± 23 nM
IC50 [2]: 198 ± 68 nM

COC(=O)[C@H]1[C@@H](OC(=O)c2ccccc2)C[C@@H]2CC[C@H]1N2C [cocaine]
IC50 [1]: 268 ± 58 nM
IC50 [2]: 1270 ± 348 nM

B1: Dopamine transporter (DAT) (Mus musculus) (protein)
chain: MSKSKCSVGPMSSVVAPAKEPNAVGPREVELILVKEQNGVQLTNSTLINPPQTPVEVQERETWSKKIDFLLSVIGFAVDLANVWRFPYLCYKNGGGAFLVPYLLFMVIAGMPLFYMELALGQFNREGAAGVWKICPVLKGVGFTVILISFYVGFFYNVIIAWALHYFFSSFTMDLPWIHCNNTWNSPNCSDAHSSNSSDGLGLNDTFGTTPAAEYFERGVLHLHQSRGIDDLGPPRWQLTACLVLVIVLLYFSLWKGVKTSGKVVWITATMPYVVLTALLLRGVTLPGAMDGIRAYLSVDFYRLCEASVWIDAATQVCFSLGVGFGVLIAFSSYNKFTNNCYRDAIITTSINSLTSFSSGFVVFSFLGYMAQKHNVPIRDVATDGPGLIFIIYPEAIATLPLSSAWAAVFFLMLLTLGIDSAMGGMESVITGLVDEFQLLHRHRELFTLGIVLATFLLSLFCVTNGGIYVFTLLDHFAAGTSILFGVLIEAIGVAWFYGVQQFSDDIKQMTGQRPNLYWRLCWKLVSPCFLLYVVVVSIVTFRPPHYGAYIFPDWANALGWIIATSSMAMVPIYATYKFCSLPGSFREKLAYAITPEKDRQLVDRGEVRQFTLRHWLLV
Km [3]: 0.0778 ± 0.003009 µM

B2: Dopamine transporter (DAT) (Mus musculus; T53A) (protein)
chain: B1 chain with T53A
Km [3]: 0.07117 ± 0.006766 µM
